From patent US11541098B2, “Peptide composition for treating excitatory neurotoxicity related injuries” (Biocells (Beijing) Biotech Co., Ltd., priority 2017, dated 2023)
Several values for one entry are separate records, joined by “and”; a condition that tells them apart may be missing. Identical values can stand only once. Peptide text beside a SMILES is read from it.

Legend:
MCAO model rats [1] = assay: Therapeutic effect on MCAO model rats (cerebral infarction volume, TTC staining); conditions: rat, in vivo
Procedure: The focal cerebral ischemia-reperfusion model was prepared according to the reversible middle cerebral artery occlusion (MCAO) suture method proposed by Longa with modifications in view of the anatomical structure of the rat brain. The rats were anesthetized by intraperitoneal administration of 10% chloral hydrate at a dose of […]. After anesthetization, a cut was created at the cervical midline, and the common carotid artery (CCA), external carotid artery (ECA) and pterygopalatine artery were exposed. The head portion (0.5 cm) of a monofilament nylon fishing line (0.26 mm) was coated with paraffin and a mark was made at 20 mm. All rats were inserted through the right CCA incision, and the pterygopalatine artery was temporarily clamped to prevent mis-insertion. The length of the occlusion line was about 18-20 mm from the bifurcation of CCA depending on the animal's weight, thereby occluding middle cerebral artery on the right side. The skin was then sewed, and the tail end of the occlusion line was partially fixed to the skin. After a period of ischemia for 2 hours, the occlusion line was carefully pulled out to form a reperfusion. The procedure steps for the sham control were the same as the surgery group, except for insertion of a nylon fishing line. The body temperature was maintained at 37±0.5° C. during the ischemia period and 2 h after reperfusion.
The used animals were male adult SD rats (Vittalia) of SPF grade with body weight of 220-250 g.
No drug was administered to the normal group and the sham group.
The rats were sacrificed by decapitation after scoring. The brain tissues were quickly removed and placed in a refrigerator at −20° C. After 10 minutes, the tissues were placed in a room temperature environment. The brains were placed in a rat brain section mold. After the olfactory bulb, cerebellum and low brain stem were removed, the brains were coronally cut five times at 2 mm thickness as shown in the profile to obtain six continuous raw coronal slices. Then, the brain sections were quickly placed in a 5 ml solution containing 2% TTC, and incubated at 37° C. for 30 minutes in the dark, during which the brain sections were flipped once every 5 minutes. With the TTC staining, the normal tissue would be rose red, and the infarcted tissue would be unstained and retained white. Each group of brain sections was arranged neatly, and photographed. The photos were processed by an image analysis system software and statistically analyzed. The infarction area of each brain section was calculated, and multiplied by the thickness of each brain section (2 mm). The products of the infarction area of individual brain section multiplied by the thickness were summed to obtain the cerebral infarction volume for each animal. The volumes were expressed as percentages accounting for the cerebral hemisphere to eliminate the effects of cerebral edema.

rats = assay: Acute toxicity test on rats; type: in vivo, rat; conditions: dose of 200 mg/kg body weight
Procedure: Acute toxicity tests were performed on rats.

MCAO model rats [2] = assay: HE staining for histological changes of rat brain after ischemia; type: in vivo; conditions: 10 mg/kg, 24 h after ischemia
Procedure: The rats in each group were decapitated at 24 h after ischemia, and the resultant brain was coronally sectioned near the optic chiasm with a thickness of about 4 mm. The sections were fixed with 10% formalin solution and dehydrated with alcohol with a concentration gradient from 70% to 100%. The sections were permeabilized twice in xylene, and embedded in paraffin. The paraffin block was carefully trimmed, and immobilized on a paraffin slicing machine, and sliced to sections with a thickness of 4 μm. The paraffin sections were completely unfolded, attached to a clean and dry glass slide, and stored in a refrigerator at 4° C. Conventional HE staining was performed, and the staining results were observed by light microscopy.

CC[C@H](C)[C@H](NC(=O)[C@H](CO)NC(=O)[C@H](CO)NC(=O)[C@H](CC(C)C)NC(=O)[C@H](CCCCN)NC(=O)[C@H](CCCNC(=N)N)NC(=O)[C@H](CCCNC(=N)N)NC(=O)[C@H](CCCNC(=N)N)NC(=O)[C@H](CCC(N)=O)NC(=O)[C@H](CCCNC(=N)N)NC(=O)[C@H](CCCNC(=N)N)NC(=O)[C@H](CCCCN)NC(=O)[C@H](CCCCN)NC(=O)[C@H](CCCNC(=N)N)NC(=O)CNC(=O)[C@@H](N)Cc1ccc(O)cc1)C(=O)N[C@@H](CCC(=O)O)C(=O)N[C@@H](CO)C(=O)N[C@@H](CC(=O)O)C(=O)N[C@H](C(=O)O)C(C)C [NA-1, reference compound] (H-YGRKKRRQRRRKLSSIESDV-OH)
Mean of infarction volume percentage (%) (MCAO model rats [1]): 38.56%

CC[C@H](C)[C@H](NC(=O)[C@H](CCC(=O)O)NC(=O)[C@@H](NC(=O)[C@H](CC(=O)O)NC(=O)[C@H](CC(C)C)NC(=O)[C@H](CC(C)C)NC(=O)[C@H](CCCCN)NC(=O)[C@H](CCC(=O)O)NC(=O)[C@H](Cc1ccc(O)cc1)NC(=O)[C@H](CCCNC(=N)N)NC(=O)[C@H](CCCNC(=N)N)NC(=O)[C@H](CCCNC(=N)N)NC(=O)[C@H](CCC(N)=O)NC(=O)[C@H](CCCNC(=N)N)NC(=O)[C@H](CCCNC(=N)N)NC(=O)[C@H](CCCCN)NC(=O)[C@H](CCCCN)NC(=O)[C@H](CCCNC(=N)N)NC(=O)CNC(=O)[C@@H](N)Cc1ccc(O)cc1)[C@@H](C)O)C(=O)O [P5]
acute toxicity (rats): no lethal effect and other obvious toxic side effects | Mean of infarction volume percentage (%) (MCAO model rats [1]): 24.84% and 36.54% and 43.22% | Mean of infarction volume percentage (%) (MCAO model rats [1]; 1 mg/kg): 44.23% | Reduction of infarction volume percentage vs model group (MCAO model rats [1]; 1 mg/kg): 3.76% | Mean of infarction volume percentage (%) (MCAO model rats [1]; 3 mg/kg): 35.66% | Reduction of infarction volume percentage vs model group (MCAO model rats [1]; 3 mg/kg): 22.41% | Mean of infarction volume percentage (%) (MCAO model rats [1]; 10 mg/kg): 19.54% | pathological changes of brain tissue (HE staining) (MCAO model rats [2]; prophylactic administration): significantly improved | pathological changes of brain tissue (HE staining) (MCAO model rats [2]; therapeutic administration): significantly improved

CC[C@H](C)[C@H](NC(=O)[C@H](CO)NC(=O)[C@H](CO)NC(=O)[C@H](CC(C)C)NC(=O)[C@H](CCCCN)NC(=O)[C@H](CCC(=O)O)NC(=O)[C@H](Cc1ccc(O)cc1)NC(=O)[C@H](CCCNC(=N)N)NC(=O)[C@H](CCCNC(=N)N)NC(=O)[C@H](CCCNC(=N)N)NC(=O)[C@H](CCC(N)=O)NC(=O)[C@H](CCCNC(=N)N)NC(=O)[C@H](CCCNC(=N)N)NC(=O)[C@H](CCCCN)NC(=O)[C@H](CCCCN)NC(=O)[C@H](CCCNC(=N)N)NC(=O)CNC(=O)[C@@H](N)Cc1ccc(O)cc1)C(=O)N[C@@H](CCC(=O)O)C(=O)N[C@@H](CO)C(=O)N[C@@H](CC(=O)O)C(=O)N[C@H](C(=O)O)C(C)C [YE-NA-1] (H-YGRKKRRQRRRYEKLSSIESDV-OH)
Mean of infarction volume percentage (%) (MCAO model rats [1]): 33.96%
